Source: ChEMBL document CHEMBL4665678, “Overview of AKR1C3: Inhibitor Achievements and Disease Insights” (J Med Chem, 2020)
Substitutions are numbered along the chain they refer to.

Assays:
[1] = target: T1, Aldo-keto reductase family 1 member C3 (Homo sapiens, UniProt P42330); test: Inhibition of human AKR1C3 expressed in Escherichia coli incubated for 30 mins in presence of NADPH regeneration system by UHPLC analysis; details: for Ki: read-out: Ki
T1 sequence (P42330 whole entry): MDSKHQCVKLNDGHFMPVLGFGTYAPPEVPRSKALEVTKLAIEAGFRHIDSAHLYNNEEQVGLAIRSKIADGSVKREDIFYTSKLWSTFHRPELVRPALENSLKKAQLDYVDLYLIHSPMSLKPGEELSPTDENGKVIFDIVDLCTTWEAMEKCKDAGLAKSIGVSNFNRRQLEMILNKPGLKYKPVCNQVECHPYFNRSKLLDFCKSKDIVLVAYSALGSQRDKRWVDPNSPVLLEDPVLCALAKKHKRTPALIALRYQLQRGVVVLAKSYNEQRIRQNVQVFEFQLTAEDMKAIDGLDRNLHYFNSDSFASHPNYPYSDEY

[2] = target: T2, Aldo-keto reductase family 1 member C1 (Homo sapiens, UniProt Q04828); test: Inhibition of human AKR1C1 using S-tetralol as substrate in presence of NADP by fluorescence method
T2 sequence (Q04828 whole entry): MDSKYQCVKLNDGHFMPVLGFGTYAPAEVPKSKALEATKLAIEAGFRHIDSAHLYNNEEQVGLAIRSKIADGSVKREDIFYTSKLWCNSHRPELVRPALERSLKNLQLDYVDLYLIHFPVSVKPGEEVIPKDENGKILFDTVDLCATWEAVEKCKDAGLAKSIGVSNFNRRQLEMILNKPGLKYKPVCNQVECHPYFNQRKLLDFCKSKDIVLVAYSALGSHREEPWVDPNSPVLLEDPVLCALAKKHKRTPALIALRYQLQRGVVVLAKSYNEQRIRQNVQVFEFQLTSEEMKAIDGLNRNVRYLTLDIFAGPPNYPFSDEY

[3] = target: T3, Aldo-keto reductase family 1 member C2 (Homo sapiens, UniProt P52895); test: Inhibition of human AKR1C2 using S-tetralol as substrate in presence of NADP by fluorescence method
T3 sequence (P52895 whole entry): T2 sequence (Q04828 whole entry) with T38V, R47H, L54V, C87S, V151M, R170H, Q172L

[4] = target: T1, Aldo-keto reductase family 1 member C3; test: Inhibition of human AKR1C3 using S-tetralol as substrate in presence of NADP by fluorescence method
[5] = target: T4, Aldo-keto reductase family 1 member C4 (Homo sapiens, UniProt P17516); test: Inhibition of human AKR1C4 using S-tetralol as substrate in presence of NADP by fluorescence method
T4 sequence (P17516 whole entry): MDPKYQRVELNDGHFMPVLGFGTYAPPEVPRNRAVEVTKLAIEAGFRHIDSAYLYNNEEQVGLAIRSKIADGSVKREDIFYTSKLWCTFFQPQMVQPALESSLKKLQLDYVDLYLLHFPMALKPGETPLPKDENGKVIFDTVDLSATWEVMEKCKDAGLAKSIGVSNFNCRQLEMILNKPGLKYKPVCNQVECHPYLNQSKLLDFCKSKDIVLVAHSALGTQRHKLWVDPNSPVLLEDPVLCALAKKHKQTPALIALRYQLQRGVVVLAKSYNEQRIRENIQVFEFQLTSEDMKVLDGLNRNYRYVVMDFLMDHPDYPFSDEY

[6] = target: T1, Aldo-keto reductase family 1 member C3; test: Inhibition of human AKR1C3 expressed in Escherichia coli BL21(DE3) pLysS cells using 9,10-phenanthrenequinone as substrate
[7] = target: T1, Aldo-keto reductase family 1 member C3; test: Inhibition of human AKR1C3 expressed in Escherichia coli BL21(DE3) pLysS cells using S-tetralol as substrate
Androgen receptor [8] = target: T5, Androgen receptor (Homo sapiens, UniProt P10275); test: Displacement of [3H]-R1881 from androgen receptor (unknown origin) expressed in human HeLa cells harboring AR3A-PSA-(ARE)4-Luc13 incubated for 2 hrs by scintillation counting; type: cell-based
T5 sequence (P10275 whole entry): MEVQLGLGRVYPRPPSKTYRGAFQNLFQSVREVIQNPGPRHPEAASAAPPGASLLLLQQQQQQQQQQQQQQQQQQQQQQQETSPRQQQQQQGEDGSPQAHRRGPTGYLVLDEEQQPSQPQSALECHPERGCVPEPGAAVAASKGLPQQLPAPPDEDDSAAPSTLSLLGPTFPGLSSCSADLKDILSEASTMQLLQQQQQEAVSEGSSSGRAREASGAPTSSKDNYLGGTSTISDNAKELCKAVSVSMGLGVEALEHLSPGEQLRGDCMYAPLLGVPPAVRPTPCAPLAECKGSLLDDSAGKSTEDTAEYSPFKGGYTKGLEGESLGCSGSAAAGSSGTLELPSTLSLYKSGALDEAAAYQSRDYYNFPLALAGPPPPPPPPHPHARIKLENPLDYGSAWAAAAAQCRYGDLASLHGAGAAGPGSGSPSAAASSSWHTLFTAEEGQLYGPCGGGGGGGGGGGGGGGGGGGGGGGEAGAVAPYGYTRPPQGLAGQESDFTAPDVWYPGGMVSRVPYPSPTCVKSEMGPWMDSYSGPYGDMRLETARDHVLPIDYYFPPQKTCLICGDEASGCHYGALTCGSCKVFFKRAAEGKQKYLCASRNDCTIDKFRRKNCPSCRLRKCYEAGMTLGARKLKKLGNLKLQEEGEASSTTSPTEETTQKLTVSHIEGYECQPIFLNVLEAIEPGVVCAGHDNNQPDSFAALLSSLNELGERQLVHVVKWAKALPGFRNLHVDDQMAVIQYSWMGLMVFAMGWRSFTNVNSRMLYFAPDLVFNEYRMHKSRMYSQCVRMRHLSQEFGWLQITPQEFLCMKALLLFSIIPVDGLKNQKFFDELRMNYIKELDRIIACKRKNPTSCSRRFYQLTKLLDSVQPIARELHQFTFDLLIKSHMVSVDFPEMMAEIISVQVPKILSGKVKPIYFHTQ

Androgen receptor [9] = target: T5, Androgen receptor; test: Antagonist activity at androgen receptor (unknown origin) expressed in human HeLa cells harboring AR3A-PSA-(ARE)4-Luc13 in presence of DHT by BrightGlo luciferase assay; type: cell-based
[10] = target: Aldo-keto reductase family 1 member B1 (Homo sapiens, UniProt P15121); test: Inhibition of N-terminal His-tagged human AKR1B1 expressed in Escherichia coli BL21 ([…] Plus) competent cells using D,L-glyceraldehyde as substrate in presence of NADPH by fluorescence method
[11] = target: T1, Aldo-keto reductase family 1 member C3; test: Inhibition of N-terminal His-tagged human AKR1C3 expressed in Escherichia coli BL21 ([…] Plus) competent cells using 9,10 -Phenanthrenequinone as substrate in presence of NADPH by fluorescence method
[12] = target: T2, Aldo-keto reductase family 1 member C1; test: Inhibition of N-terminal His-tagged human AKR1C1 expressed in Escherichia coli BL21 ([…] Plus) competent cells using 9,10 -Phenanthrenequinone as substrate in presence of NADPH by fluorescence method
[13] = target: T6, Aldo-keto reductase family 1 member A1 (Homo sapiens, UniProt P14550); test: Inhibition of N-terminal His-tagged human AKR1A1 expressed in Escherichia coli BL21 ([…] Plus) competent cells using D,L-glyceraldehyde as substrate in presence of NADPH by fluorescence method
T6 sequence (P14550 whole entry): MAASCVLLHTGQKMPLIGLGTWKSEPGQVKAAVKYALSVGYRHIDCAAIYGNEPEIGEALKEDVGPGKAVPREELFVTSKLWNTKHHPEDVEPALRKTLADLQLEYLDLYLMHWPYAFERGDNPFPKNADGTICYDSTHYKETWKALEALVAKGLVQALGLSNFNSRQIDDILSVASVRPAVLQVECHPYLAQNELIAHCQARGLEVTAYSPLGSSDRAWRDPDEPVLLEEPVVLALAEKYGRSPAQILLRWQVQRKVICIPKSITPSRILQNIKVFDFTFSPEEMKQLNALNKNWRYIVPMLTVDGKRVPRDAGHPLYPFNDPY

[14] = target: T4, Aldo-keto reductase family 1 member C4; test: Inhibition of N-terminal His-tagged human AKR1C4 expressed in Escherichia coli BL21 ([…] Plus) competent cells using 9,10 -Phenanthrenequinone as substrate in presence of NADPH by fluorescence method
[15] = target: T3, Aldo-keto reductase family 1 member C2; test: Inhibition of N-terminal His-tagged human AKR1C2 expressed in Escherichia coli BL21 ([…] Plus) competent cells using 9,10 -Phenanthrenequinone as substrate in presence of NADPH by fluorescence method
[16] = target: Aldo-keto reductase family 1 member B10 (Homo sapiens, UniProt O60218); test: Inhibition of N-terminal His-tagged human AKR1B10 expressed in Escherichia coli BL21 ([…] Plus) competent cells using […] as substrate in presence of NADPH by fluorescence method
[17] = target: T1, Aldo-keto reductase family 1 member C3; test: Inhibition of N-terminal His-tagged human AKR1C3 expressed in Escherichia coli BL21([…] Plus) competent cells using 9,10-phenanthrenequinone as substrate in presence of NADPH
[18] = target: T2, Aldo-keto reductase family 1 member C1; test: Inhibition of N-terminal His-tagged human AKR1C1 expressed in Escherichia coli BL21 ([…] Plus) competent cells using 9,10-phenanthrenequinone as substrate in presence of NADPH
[19] = target: T3, Aldo-keto reductase family 1 member C2; test: Inhibition of N-terminal His-tagged human AKR1C2 expressed in Escherichia coli BL21 ([…] Plus) competent cells using 9,10-phenanthrenequinone as substrate in presence of NADPH
[20] = target: T2, Aldo-keto reductase family 1 member C1; test: Inhibition of AKR1C1 (unknown origin) using 9,10-phenanthrenequinone as substrate
[21] = target: T3, Aldo-keto reductase family 1 member C2; test: Inhibition of AKR1C2 (unknown origin) using 9,10-phenanthrenequinone as substrate

Chain of Aldo-keto reductase family 1 member B10 (O60218 whole entry): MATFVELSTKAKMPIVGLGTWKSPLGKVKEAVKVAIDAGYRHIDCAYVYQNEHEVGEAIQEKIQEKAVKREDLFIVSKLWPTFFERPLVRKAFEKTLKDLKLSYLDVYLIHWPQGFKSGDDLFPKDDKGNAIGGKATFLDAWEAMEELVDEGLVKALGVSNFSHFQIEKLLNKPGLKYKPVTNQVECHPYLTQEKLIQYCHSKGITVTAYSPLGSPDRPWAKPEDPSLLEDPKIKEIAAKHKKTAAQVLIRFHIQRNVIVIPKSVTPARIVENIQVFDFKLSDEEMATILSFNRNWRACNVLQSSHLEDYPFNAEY

In the case of `CC(C)C(CO)Nc1nc(Nc2cccc(Cl)c2)c2ncn(C(C)C)c2n1` (stereo not given), the IC50 [1] is reported as 6.58 µM and the Ki [1] is reported as 5.5 µM.
For `O=C(O)c1cccc(Nc2ccc([N+](=O)[O-])c3ccccc23)c1`, the IC50 [2] was 41.3 µM, the IC50 [3] was 24.7 µM and the IC50 [4] was 0.086 µM. For the same molecule, the IC50 [5] was 30.6 µM.
In the case of `CCCCC/C=C/C/C=C/C/C=C/C/C=C/CCCC(=O)O`, the IC50 [6] is reported as 0.84 µM and the IC50 [7] is reported as 0.69 µM.
`Oc1ccc2c(O)ncc(-c3cc(F)c(F)c(F)c3)c2c1` was tested, and the IC50 (Androgen receptor [8]) was 80 µM and the IC50 (Androgen receptor [9]) was 2.1 µM.
For `O=C(O)c1cccc(Nc2ccc([N+](=O)[O-])c3c([N+](=O)[O-])cccc23)c1`, the IC50 [2] was 15.4 µM, the IC50 [3] was 15.6 µM and the IC50 [4] was 0.053 µM. The IC50 [5] was 5.34 µM.
`CC(=O)c1ccc(Nc2cccc(C(=O)O)c2)c2ccccc12` gave an IC50 [2] of 50 µM, an IC50 [3] of 19.5 µM and an IC50 [4] of 0.082 µM. The IC50 [5] was 17.7 µM.
`CCC(CO)Nc1nc(NCc2ccccc2)c2ncn(C(C)C)c2n1` (stereo not drawn) [(RS)-ROSCOVITINE] gave an IC50 [1] of 2.15 µM and a Ki [1] of 1.4 µM.
In the case of `COc1ccc2[nH]c(C(=O)N3CCC(CC(C)(C)O)CC3)cc2c1` [ASP-9521], the IC50 (Androgen receptor [9]) is reported as 300 µM.
For `O=C(/C=C/c1ccc(O)c(O)c1)OCCc1ccccc1` [CAFFEIC ACID PHENETHYL ESTER], the IC50 [10] was 3.56 µM, the IC50 [11] was 3.71 µM and the IC50 [12] was 29.2 µM. For the same molecule, the IC50 [13] was > 50 µM, the IC50 [14] was 8.25 µM and the IC50 [15] was 25.8 µM. It also gave an IC50 [16] of 0.39 µM.
With `Cc1ccc(S(=O)(=O)NC(=O)NN2CC3CCCC3C2)cc1` (stereo not given) [GLICLAZIDE] the IC50 [17] was 19.6 µM, the IC50 [18] was > 300 µM and the IC50 [19] was > 1000 µM.
With `CCC1=C(C)CN(C(=O)NCCc2ccc(S(=O)(=O)NC(=O)N[C@H]3CC[C@H](C)CC3)cc2)C1=O` [GLIMEPIRIDE] the IC50 [17] was 0.85 µM, the IC50 [18] was 6.86 µM and the IC50 [19] was > 50 µM.
With `COc1ccc2c(c1)c(CC(=O)O)c(C)n2C(=O)c1ccc(Cl)cc1` [INDOMETHACIN] the IC50 [20] was 96 µM and the IC50 [21] was 50 µM.
`CCCCC/C=C\C/C=C\CCCCCCCC(=O)O` [LINOLEIC ACID] showed an IC50 [6] of 0.69 µM and an IC50 [7] of 0.69 µM.
With `CCCCCCCCOC(=O)c1cc(O)c(O)c(O)c1` [OCTYL_GALLATE] the IC50 [10] was > 100 µM, the IC50 [11] was 2.56 µM and the IC50 [12] was 5.48 µM. For the same molecule, the IC50 [13] was > 100 µM, the IC50 [14] was 4.04 µM and the IC50 [15] was 9.28 µM. The IC50 [16] was > 100 µM.
